The target of the test is human F508del-CFTR (Homo sapiens, UniProt P13569, DEL508-508). The test can be described thus: F508del-CFTR cell surface expression (corrector activity), DiscoveRx ß-galactosidase complementation chemiluminescence assay in recombinant U2OS cell line.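 On all read-outs here: U2OS cells co-expressing ProLink-tagged F508del-CFTR and a membrane-anchored enzyme acceptor, where more surface CFTR restores β-galactosidase activity measured by chemiluminescence.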 The conditions noted are these: for EC50: EC50, F508del-CFTR cell surface expression, U2OS cells, 16h compound incubation, geomean values; for Emax: U2OS, in relation to Emax of corrector lumacaftor (=100%), arithmetic mean values.
human F508del-CFTR, sequence (P13569 with tags, fused parts or gaps DEL508-508): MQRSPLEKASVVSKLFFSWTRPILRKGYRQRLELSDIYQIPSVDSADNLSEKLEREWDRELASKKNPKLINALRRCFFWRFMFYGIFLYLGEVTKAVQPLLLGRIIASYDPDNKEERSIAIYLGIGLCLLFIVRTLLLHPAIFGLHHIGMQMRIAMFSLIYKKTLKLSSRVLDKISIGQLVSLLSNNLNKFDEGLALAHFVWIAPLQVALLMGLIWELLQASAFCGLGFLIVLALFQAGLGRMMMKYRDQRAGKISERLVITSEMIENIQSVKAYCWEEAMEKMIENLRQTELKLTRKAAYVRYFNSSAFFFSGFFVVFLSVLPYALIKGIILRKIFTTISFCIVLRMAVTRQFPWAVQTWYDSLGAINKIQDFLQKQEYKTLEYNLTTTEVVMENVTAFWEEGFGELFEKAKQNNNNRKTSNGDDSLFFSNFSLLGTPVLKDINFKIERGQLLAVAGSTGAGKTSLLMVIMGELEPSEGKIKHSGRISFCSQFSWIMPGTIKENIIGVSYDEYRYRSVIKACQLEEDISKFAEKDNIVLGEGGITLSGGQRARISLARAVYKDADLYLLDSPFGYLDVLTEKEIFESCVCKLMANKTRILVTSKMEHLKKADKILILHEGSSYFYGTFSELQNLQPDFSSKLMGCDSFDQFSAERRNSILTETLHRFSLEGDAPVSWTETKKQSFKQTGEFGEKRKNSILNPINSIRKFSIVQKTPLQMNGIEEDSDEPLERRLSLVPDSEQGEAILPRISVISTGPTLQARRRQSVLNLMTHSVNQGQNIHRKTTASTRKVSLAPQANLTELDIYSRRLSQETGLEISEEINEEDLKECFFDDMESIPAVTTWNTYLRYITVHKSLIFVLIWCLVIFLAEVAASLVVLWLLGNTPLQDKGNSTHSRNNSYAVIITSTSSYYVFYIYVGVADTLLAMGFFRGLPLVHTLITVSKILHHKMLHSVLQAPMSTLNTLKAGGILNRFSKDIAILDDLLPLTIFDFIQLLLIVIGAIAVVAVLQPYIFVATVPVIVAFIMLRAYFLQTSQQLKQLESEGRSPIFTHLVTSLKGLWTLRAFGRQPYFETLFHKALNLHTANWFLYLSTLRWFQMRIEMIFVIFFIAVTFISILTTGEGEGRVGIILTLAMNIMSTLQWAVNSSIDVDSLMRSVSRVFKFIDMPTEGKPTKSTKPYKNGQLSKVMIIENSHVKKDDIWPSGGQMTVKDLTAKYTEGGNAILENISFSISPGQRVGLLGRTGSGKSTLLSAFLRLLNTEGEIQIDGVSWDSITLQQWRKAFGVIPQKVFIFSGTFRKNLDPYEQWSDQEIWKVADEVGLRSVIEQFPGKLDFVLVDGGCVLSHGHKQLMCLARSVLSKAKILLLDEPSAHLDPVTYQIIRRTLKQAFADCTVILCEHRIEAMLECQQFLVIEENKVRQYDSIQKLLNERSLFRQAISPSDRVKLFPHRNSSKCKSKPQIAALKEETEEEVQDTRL

As usually defined, the EC50 is the concentration at which the effect is half-maximal. For orientation: Emax means the size of the effect at its maximum, as opposed to the concentration needed.

SMILES strings stand for the structures.

For the compound `Cc1cc(CCNC(=O)[C@@H]2CC(=O)N(C)[C@@H](CC(C)C)C(=O)N(C)[C@H](C3CCCC3)C(=O)N[C@H](Cc3ccccc3)COc3cnc4ccccc4c3C(=O)N2)on1` [Example 710, (3S,7S,10R,13R)-13-benzyl-10-cyclopentyl-7-isobutyl-6,9-dimethyl-N-(2-(3-methylisoxazol-5-yl)ethyl)-1,5,8,11-tetraoxo-1,2,3,4,5,6,7,8,9,10,11,12,13,14-tetradecahydro-[1]oxa[4,7,10,14]tetraazacycloheptadecino[17,16-c]quinoline-3-carboxamide], the EC50 came to 149 nM and the Emax was found to be 280%.

With `Cc1cc(CCNC(=O)[C@@H]2CC(=O)N(C)[C@@H](CC(C)C)C(=O)N(C)C3(CC(F)(F)C3)C(=O)N[C@H](Cc3ccccc3)COc3cnc4ccccc4c3C(=O)N2)on1` [Example 711, (3′S,7′S,13′R)-13′-benzyl-3,3-difluoro-7′-isobutyl-6′,9′-dimethyl-N-(2-(3-methylisoxazol-5-yl)ethyl)-1′,5′,8′,11′-tetraoxo-2′,3′,4′,5′,6′,7′,8′,9′,11′,12′,13′,14′-dodecahydro-1′H-spiro[cyclobutane-1,10′-[1]oxa[4,7,10,14]tetraazacycloheptadecino[17,16-c]quinoline]-3′-carboxamide], the EC50 is 778 nM and the Emax was determined as 301%.

Consider `Cc1cc(CCNC(=O)[C@@H]2CC(=O)N(C)[C@@H](CC(C)C)C(=O)N(C)[C@H](COCc3ccccc3)C(=O)N[C@H](Cc3ccccc3)COc3ccc4ccccc4c3C(=O)N2)on1` [Example 714, (3S,7S,10R,13R)-13-benzyl-10-((benzyloxy)methyl)-7-isobutyl-6,9-dimethyl-N-(2-(3-methylisoxazol-5-yl)ethyl)-1,5,8,11-tetraoxo-1,2,3,4,5,6,7,8,9,10,11,12,13,14-tetradecahydronaphtho[1,2-p][1]oxa[4,7,10,14]tetraazacycloheptadecine-3-carboxamide], for which the EC50 was 36 nM and the Emax is 410%.

As for `COc1cccc(CCNC(=O)[C@@H]2CC(=O)N(C)[C@@H](CC(C)C)C(=O)N(C)[C@@H](COCc3ccccc3)C(=O)N[C@H](Cc3ccccc3)COc3ccc4ccccc4c3C(=O)N2)c1` [Example 715, (3S,7S,10S,13R)-13-benzyl-10-((benzyloxy)methyl)-7-isobutyl-N-(3-methoxyphenethyl)-6,9-dimethyl-1,5,8,11-tetraoxo-1,2,3,4,5,6,7,8,9,10,11,12,13,14-tetradecahydronaphtho[1,2-p][1]oxa[4,7,10,14]tetraazacycloheptadecine-3-carboxamide], the EC50 was found to be 64 nM and the Emax was found to be 283%.

As to `Cc1cc(CCNC(=O)[C@@H]2CC(=O)N(C)[C@@H](CC(C)C)C(=O)N(C)[C@@H](COCc3ccccc3)C(=O)N[C@H](Cc3ccccc3)COc3ccc4ccccc4c3C(=O)N2)on1` [Example 716, (3S,7S,10S,13R)-13-benzyl-10-((benzyloxy)methyl)-7-isobutyl-6,9-dimethyl-N-(2-(3-methylisoxazol-5-yl)ethyl)-1,5,8,11-tetraoxo-1,2,3,4,5,6,7,8,9,10,11,12,13,14-tetradecahydronaphtho[1,2-p][1]oxa[4,7,10,14]tetraazacycloheptadecine-3-carboxamide], the EC50 was determined as 144 nM and the Emax amounted to 313%.

For the compound `Cc1cc(CCNC(=O)[C@@H]2CC(=O)N(C)[C@@H](CC(C)C)C(=O)N(C)[C@H](C3CCCC3)C(=O)N[C@H](Cc3ccccc3)COc3cnc4ccc(F)cc4c3C(=O)N2)on1` [Example 721, (3S,7S,10R,13R)-13-benzyl-10-cyclopentyl-20-fluoro-7-isobutyl-6,9-dimethyl-N-(2-(3-methylisoxazol-5-yl)ethyl)-1,5,8,11-tetraoxo-1,2,3,4,5,6,7,8,9,10,11,12,13,14-tetradecahydro-[1]oxa[4,7,10,14]tetraazacycloheptadecino[17,16-c]quinoline-3-carboxamide], the EC50 is 142 nM and the Emax came out at 328%.

On to `Cc1cc(CCNC(=O)[C@@H]2CC(=O)N(C)[C@@H](CC(C)C)C(=O)N(C)[C@H](Cc3ccccc3)C(=O)N[C@H](Cc3ccccc3)COc3cnc4ccc(F)cc4c3C(=O)N2)on1` [Example 722, (3S,7S,10R,13R)-10,13-Dibenzyl-20-fluoro-7-isobutyl-6,9-dimethyl-N-(2-(3-methylisoxazol-5-yl)ethyl)-1,5,8,11-tetraoxo-1,2,3,4,5,6,7,8,9,10,11,12,13,14-tetradecahydro-[1]oxa[4,7,10,14]tetraazacycloheptadecino[17,16-c]quinoline-3-carboxamide], for which the EC50 came out at 101 nM and the Emax is 347%.

In the case of `COc1nccc2c1C(=O)N[C@H](C(=O)NCCc1nc(C3CC3)no1)CC(=O)N(C)[C@@H](CC(C)C)C(=O)N(C)[C@@H](COCc1ccccc1)C(=O)N[C@H](Cc1ccccc1)CO2` [Example 724, (3R,6RS,9S,13S)-3-benzyl-6-((benzyloxy)methyl)-N-(2-(3-cyclopropyl-1,2,4-oxadiazol-5-yl)ethyl)-9-isobutyl-16-methoxy-7,10-dimethyl-5,8,11,15-tetraoxo-2,3,4,5,6,7,8,9,10,11,12,13,14,15-tetradecahydropyrido[3,4-p][1]oxa[4,7,10,14]tetraazacycloheptadecine-13-carboxamide], the EC50 came out at 93 nM and the Emax was found to be 345%.

For the compound `Cc1cc(CCNC(=O)[C@@H]2CC(=O)N(C)[C@@H](CC(C)C)C(=O)N3CCNC[C@@H]3C(=O)N[C@H](Cc3ccccc3)COc3ccc4ccccc4c3C(=O)N2)on1` [Example 725, (4aR,7R,18S,22S)-7-Benzyl-22-isobutyl-21-methyl-N-(2-(3-methylisoxazol-5-yl)ethyl)-5,16,20,23-tetraoxo-2,3,4,4a,5,6,7,8,16,17,18,19,20,21,22,23-hexadecahydro-1H-naphtho[1,2-p]pyrazino[2,1-f][1]oxa[4,7,10,14]tetraazacycloheptadecine-18-carboxamide], the EC50 amounted to 1370 nM and the maximal response (Emax) turned out to be 200%.

For `COc1cccc(CCNC(=O)[C@@H]2CC(=O)N(C)[C@@H](CC(C)C)C(=O)N3CCNC[C@@H]3C(=O)N[C@H](Cc3ccccc3)COc3ccc4ccccc4c3C(=O)N2)c1` [Example 726, (4aR,7R,18S,22S)-7-benzyl-22-isobutyl-N-(3-methoxyphenethyl)-21-methyl-5,16,20,23-tetraoxo-2,3,4,4a,5,6,7,8,16,17,18,19,20,21,22,23-hexadecahydro-1H-naphtho[1,2-p]pyrazino[2,1-f][1]oxa[4,7,10,14]tetraazacycloheptadecine-18-carboxamide], the EC50 stood at 624 nM and the maximal response (Emax) amounted to 234%.

For `Cc1cc(CCNC(=O)[C@@H]2CC(=O)N(C)[C@@H](CC(C)C)C(=O)N3CCNC[C@@H]3C(=O)N[C@H](Cc3ccccc3)COc3cnc4ccccc4c3C(=O)N2)on1` [Example 727, (9S,13S,19aR,22R)-22-benzyl-13-isobutyl-12-methyl-N-(2-(3-methylisoxazol-5-yl)ethyl)-7,11,14,20-tetraoxo-7,8,9,10,11,12,13,14,17,18,19,19a,20,21,22,23-hexadecahydro-16H-pyrazino[2′,1′:6,7][1]oxa[4,7,10,14]tetraazacycloheptadecino[17,16-c]quinoline-9-carboxamide], the concentration for a half-maximal effect (EC50) was determined as 5050 nM and the maximum response (Emax) amounted to 138%.

On to `COc1cccc(CCNC(=O)[C@@H]2CC(=O)N(C)[C@@H](CC(C)C)C(=O)N3CCN(S(=O)(=O)c4ccccc4)C[C@@H]3C(=O)N[C@H](Cc3ccccc3)COc3ccc4ccccc4c3C(=O)N2)c1` [Example 729, (4aR,7R,18S,22S)-7-benzyl-22-isobutyl-N-(3-methoxyphenethyl)-21-methyl-5,16,20,23-tetraoxo-3-(phenylsulfonyl)-2,3,4,4a,5,6,7,8,16,17,18,19,20,21,22,23-hexadecahydro-1H-naphtho[1,2-p]pyrazino[2,1-f][1]oxa[4,7,10,14]tetraazacycloheptadecine-18-carboxamide], for which the EC50 is 100 nM and the Emax was 258%.

As for `COc1cccc(CCNC(=O)[C@@H]2CC(=O)N(C)[C@@H](CC(C)C)C(=O)N3CCN(S(=O)(=O)CCCN4CCOCC4)C[C@@H]3C(=O)N[C@H](Cc3ccccc3)COc3ccc4ccccc4c3C(=O)N2)c1` [Example 730, (4aR,7R,18S,22S)-7-benzyl-22-isobutyl-N-(3-methoxyphenethyl)-21-methyl-3-((3-morpholinopropyl)sulfonyl)-5,16,20,23-tetraoxo-2,3,4,4a,5,6,7,8,16,17,18,19,20,21,22,23-hexadecahydro-1H-naphtho[1,2-p]pyrazino[2,1-f][1]oxa[4,7,10,14]tetraazacycloheptadecine-18-carboxamide], the EC50 amounted to 593 nM and the Emax was determined as 248%.

With `COc1cccc(CCNC(=O)[C@@H]2CC(=O)N(C)[C@@H](CC(C)C)C(=O)N3CCN(S(C)(=O)=O)C[C@@H]3C(=O)N[C@H](Cc3ccccc3)COc3ccc4ccccc4c3C(=O)N2)c1` [Example 731, (4aR,7R,18S,22S)-7-benzyl-22-isobutyl-N-(3-methoxyphenethyl)-21-methyl-3-(methylsulfonyl)-5,16,20,23-tetraoxo-2,3,4,4a,5,6,7,8,16,17,18,19,20,21,22,23-hexadecahydro-1H-naphtho[1,2-p]pyrazino[2,1-f][1]oxa[4,7,10,14]tetraazacycloheptadecine-18-carboxamide], the EC50 was 381 nM and the Emax is 248%.

On to `COc1cccc(CCNC(=O)[C@@H]2CC(=O)N(C)[C@@H](CC(C)C)C(=O)N3CCN(S(=O)(=O)c4cccc(OC(F)(F)F)c4)C[C@@H]3C(=O)N[C@H](Cc3ccccc3)COc3ccc4ccccc4c3C(=O)N2)c1` [Example 732, (4aR,7R,18S,22S)-7-benzyl-22-isobutyl-N-(3-methoxyphenethyl)-21-methyl-5,16,20,23-tetraoxo-3-((3-(trifluoromethoxy)phenyl)sulfonyl)-2,3,4,4a,5,6,7,8,16,17,18,19,20,21,22,23-hexadecahydro-1H-naphtho[1,2-p]pyrazino[2,1-f][1]oxa[4,7,10,14]tetraazacycloheptadecine-18-carboxamide], for which the concentration for a half-maximal effect (EC50) is 64 nM and the Emax worked out at 239%.

The record behind these values is patent US20240208992A1, “MACROCYCLES AS CFTR MODULATORS” (Idorsia Pharmaceuticals Ltd, priority 2021, published 2024).
